According to ChEMBL document CHEMBL3792388, “Ecdysones from Zoanthus spp. with inhibitory activity against dengue virus 2” (Bioorg Med Chem Lett, 2016):

Legend:
[1] = test system: dengue virus type 2; test: Antiviral activity against Dengue virus 2 DN454009A infected in human HuH7 cells assessed as inhibition of viral RNA level measured 72 hrs post infection by qRT-PCR method; format: functional, organism-based; conditions: Huh-7, 72 h
[2] = Cytotoxicity against human HuH7 cells assessed as reduction in cell viability after 72 hrs by MTS assay; format: cell-based, Huh-7
[3] = Selectivity index, ratio of CC50 for human HuH7 cells to EC50 for Dengue virus 2 DN454009A infected in human HuH7 cells; format: toxicity, cell-based, Huh-7; conditions: read-out: Ratio CC50/EC50
[4] = test system: dengue virus type 1; test: Antiviral activity against Dengue virus 1 DN8700828 infected in human HuH7 cells assessed as inhibition of viral RNA level measured 72 hrs post infection by qRT-PCR method; format: functional, organism-based; conditions: DN8700828, Huh-7, 72 h
[5] = test system: dengue virus type 4; test: Antiviral activity against Dengue virus 4 S9201818 infected in human HuH7 cells assessed as inhibition of viral RNA level measured 72 hrs post infection by qRT-PCR method; format: functional, organism-based; conditions: S9201818, Huh-7, 72 h
[6] = test system: dengue virus type 3; test: Antiviral activity against Dengue virus 3 DN8700829A infected in human HuH7 cells assessed as inhibition of viral RNA level measured 72 hrs post infection by qRT-PCR method; format: functional, organism-based; conditions: Huh-7, 72 h

Row | EC50 [1] | Compound | CC50 at 72 h [2] | selectivity ratio [3] | EC50 [4] | EC50 [5] | EC50 [6]
1 | 87.3 µM | CC(=O)O[C@@H]1C[C@H]2C(=O)C=C3[C@H](CC[C@]4(C)[C@@H]([C@@](C)(O)[C@H](O)CCC(C)(C)O)CC[C@@]34O)[C@@]2(C)C[C@@H]1O | > 700 µM | > 8 | – | – | –
2 | 39.8 µM | CC(=O)OC(C)(C)CC[C@@H](O)[C@](C)(O)[C@H]1CC[C@@]2(O)C3=CC(=O)[C@@H]4C[C@@H](O)[C@@H](O)C[C@]4(C)[C@H]3CC[C@]12C | > 700 µM | > 17.6 | – | – | –
3 | 19.6 µM | CC(=O)OC(C)(C)CC[C@@H](O)[C@](C)(O)[C@H]1CC[C@@]2(O)C3=CC(=O)[C@@H]4C[C@@H](O)[C@@H](O)C[C@]4(C)[C@H]3[C@H](O)C[C@]12C | > 700 µM | > 36.7 | – | – | –
4 | > 100 µM | C=C(C[C@@H](O)[C@](C)(O)[C@H]1CC[C@@]2(O)C3=CC(=O)[C@@H]4C[C@@H](O)[C@@H](O)C[C@]4(C)[C@H]3CC[C@]12C)C(C)(C)O | > 700 µM | – | – | – | –
5 | > 100 µM | C[C@H](O)[C@H]1CC[C@@]2(O)C3=CC(=O)[C@@H]4C[C@@H](O)[C@@H](O)C[C@]4(C)[C@H]3CC[C@]12C | > 700 µM | – | – | – | –
6 | 11.2 µM | C[C@@]1(O)[C@H](O)[C@@H](CO)O[C@H]1n1ccc(N)nc1=O | 94.8 µM | > 8.5 | – | – | –
7 | 53.6 µM | CC(C)(O)CC[C@@H](O)[C@](C)(O)[C@H]1CC[C@@]2(O)C3=CC(=O)[C@@H]4C[C@@H](O)[C@@H](O)C[C@]4(C)[C@H]3CC[C@]12C [20-HYDROXYECDYSONE] | > 700 µM | > 13.1 | – | – | –

Row | Compound | EC50 [1] | CC50 at 72 h [2] | selectivity ratio [3] | EC50 [4] | EC50 [5] | EC50 [6]
8 | CC(C)(O)CC[C@@H](O)[C@](C)(O)[C@H]1CC[C@@]2(O)C3=CC(=O)[C@@H]4C[C@@H](O)CC[C@]4(C)[C@H]3CC[C@]12C | > 100 µM | > 700 µM | – | – | – | –
9 | CC(C)CC[C@@H](O)[C@](C)(O)[C@H]1CC[C@@]2(O)C3=CC(=O)[C@@H]4C[C@@H](O)[C@@H](O)C[C@]4(C)[C@H]3[C@H](O)C[C@]12C | 10.1 µM | > 700 µM | > 69.7 | 15.7 µM | 12.2 µM | 9.48 µM
10 | C[C@H]([C@H](O)CCC(C)(C)O)[C@H]1CC[C@@]2(O)C3=CC(=O)[C@@H]4C[C@@H](O)[C@@H](O)C[C@]4(C)[C@H]3CC[C@]12C [ECDYSONE] | 54.3 µM | > 700 µM | > 12.9 | – | – | –
11 | CC(CO)CC[C@@H](O)[C@](C)(O)[C@H]1CC[C@@]2(O)C3=CC(=O)[C@@H]4C[C@@H](O)[C@@H](O)C[C@]4(C)[C@H]3CC[C@]12C (some centres not stated) [INOKOSTERONE] | > 100 µM | > 700 µM | – | – | – | –
12 | CC(C)CC[C@@H](O)[C@](C)(O)[C@H]1CC[C@@]2(O)C3=CC(=O)[C@@H]4C[C@@H](O)[C@@H](O)C[C@]4(C)[C@H]3CC[C@]12C [PONASTERONE A] | > 100 µM | > 700 µM | – | – | – | –
13 | CC(C)(O)CC[C@@H](O)[C@](C)(O)[C@H]1CC[C@@]2(O)C3=CC(=O)[C@@H]4C[C@@H](O)[C@@H](O)C[C@]4(C)[C@H]3[C@H](O)C[C@]12C [TURKESTERONE] | 38.1 µM | > 700 µM | > 18.3 | – | – | –
